We go through two molecules from patent US12187715B2, “Small molecule activators of Tie-2” (EyePoint Pharmaceuticals, Inc., priority 2019, dated 2025).

Where “and” joins values, the source holds several entries; their conditions need not be identical. Equal entries are not always repeated.

Data set [1] can be described thus: HPLC purity analyses of aqueous solutions over time at room temperature (chemical stability). The class given is physicochemical.
Data set [2] can be described thus: Physical stability (appearance) of the aqueous solutions standing at room temperature. The data set is classed as physicochemical. The note with it: for Gelation or precipitation of undiluted solution: throughout the 4-week study period (Compound 2: over 5 weeks); for Appearance of solution: undiluted.
The mark [3] stands for this setting: 50% diluted samples, room temperature, T = 4 weeks.
Where [4] appears, read: undiluted samples, T = 0 (dry sample).
The mark [5] stands for this setting: undiluted samples, room temperature, T = 5 weeks.
[6] abbreviates: undiluted samples, room temperature, T = 1 day.

Turning to `COC(=O)N(C)[C@@H](Cc1ccccc1)C(=O)N[C@@H](Cc1ccc(NS(=O)(=O)[O-])cc1)c1csc(-c2cccs2)n1.[Na+]` [Compound 2, sodium (4-{(S)-2-{(S)-2-[(methoxycarbonyl)(methyl)amino]-3-phenylpropanamido}-2-[2-(thiophen-2-yl)thiazol-4-yl]ethyl}phenyl)sulfamate], the HPLC purity in data set [1] (setting [3]) was 82%; in data set [1] (50% diluted samples, room temperature, T = 6 weeks (reanalysis)) it was 96.9% and 96.95%; in data set [1] (setting [4]), 99.59%; in data set [1] (setting [5]), 88.99%; in data set [1] (undiluted samples, room temperature, T = 7 weeks (reanalysis)), 93.9% and 93.93%; in data set [1] (setting [6]) it was 98.7%. Besides, the “Time until precipitation was observed” value in data set [2] (50% diluted solution) is “about 2.5 months”. Moreover, the “Gelation or precipitation of undiluted solution” value in data set [2] was “gradually developed a precipitate”. In addition, the “Time until solution started to show haziness” value in data set [2] (undiluted solution) came to 3 days. Moreover, the Appearance of solution result was “Clear” in data set [2] (T = 0); “Precipitate” in data set [2] (T = 2 week); “Precipitate” in data set [2] (T = 3 week); “Precipitate” in data set [2] (T = 4 week); “Clear” in data set [2] (T = 1 day); “Clear” in data set [2] (T = 2 day). Moreover, the Appearance of solution entry in data set [2] (T = 3 day) is on record as “Slightly hazy”; in data set [2] (T = 4 day) it was “Small precipitate”; in data set [2] (T = 5 day), “Small precipitate”; in data set [2] (T = 6 day), “Precipitate”.

Consider `COC(=O)N(C)[C@@H](Cc1ccccc1)C(=O)N(C)[C@@H](Cc1ccc(NS(=O)(=O)[O-])cc1)c1csc(-c2cccs2)n1.[Na+]` [Compound 4, sodium (4-{(S)-2-{(S)-2-[(methoxycarbonyl)(methyl)amino]-N-methyl-3-phenylpropanamido}-2-[2-(thiophen-2-yl)thiazol-4-yl]ethyl}phenyl)sulfamate], for which the HPLC purity in data set [1] (setting [3]) came to 97.69%; in data set [1] (setting [4]), 98.72%; in data set [1] (setting [5]), 96.53%; in data set [1] (setting [6]), 98.2%. The “Gelation or precipitation of undiluted solution” value in data set [2] is “No gelation or precipitation”. Besides, the Appearance of solution result in data set [2] (T = 0), in data set [2] (T = 2 week), in data set [2] (T = 3 week), in data set [2] (T = 4 week), in data set [2] (T = 1 day) and in data set [2] (T = 2 day) was “Clear” each time. The Appearance of solution entry in data set [2] (T = 3 day), in data set [2] (T = 4 day), in data set [2] (T = 5 day) and in data set [2] (T = 6 day) was “Clear” each time.
